The values that follow come from patent publication US9999616B2 (ZENITH EPIGENETICS LTD., priority 2013, dated 2018).

Assay [1] deals with hIL-6 mRNA. Briefly: Inhibition of hIL-6 mRNA transcription in LPS-stimulated U937 macrophages. The format is cell-based, Human. The note with it: Homo sapiens, U-937, PMA-differentiated U937 cells, 1 h pretreatment, LPS 3 h, read-out: IL-6 activity. In outline: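 PMA-differentiated U937 macrophages (60 ng/mL PMA, 3 days) pretreated 1 h with compound in 0.1% DMSO, then stimulated with 1 ug/mL E. coli LPS for 3 h at 37° C. IL-6 mRNA quantified by one-step TaqMan qRT-PCR, normalized to cyclophilin; fold expression relative to control, triplicate wells.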

For assay [2], the system named is Human AML MV-4-11 cells. Briefly: Inhibition of cell proliferation in MV4-11 cells (CellTiter Aqueous One). The class given is cell-based. The note with it: MV4-11, 72 h. Put shortly:
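MV4-11 cells, 5×10^4 per well in IMDM with 10% FBS, were exposed to increasing compound concentrations or 0.1% DMSO for 72 h at 37 °C in triplicate. Viability was read by MTS (CellTiter Aqueous One) absorbance at 490 nm after 3-4 h. IC50 was derived from background-corrected signal relative to DMSO.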

Assay [3] deals with Brd4 bromodomain 1 (BRD4(1)) (Homo sapiens, UniProt O60885). Briefly: Inhibition of tetra-acetylated histone H4 binding to Brd4 bromodomain 1, measured by FRET (HTRF). On the set-up: made in house; host or cells: E. coli BL21(DE3). The conditions noted are these: 2 h at room temperature. In outline: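 Inhibition was read as a drop in 665 nm relative to 620 nm HTRF signal after 2 h at room temperature, with IC50 from dose-response curves in duplicate wells. Reactions held 200 nM E. coli-expressed His-tagged bromodomain and 25-50 nM biotinylated tetra-acetylated histone H4 peptide. Buffer was 30 mM HEPES pH 7.4 with KF, CHAPS, BSA and 0.2% DMSO.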
On the technique in general: Time-resolved FRET reads energy transfer from a long-lived donor to a nearby acceptor.

In assay [4] the test system is c-myc in Human AML MV4-11 cells. Briefly: Inhibition of cMYC expression (mRNA, real-time PCR) in MV4-11 cells. The class given is cell-based. The conditions noted are these: 3 h treatment, cMYC mRNA by real-time PCR. In outline:
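MV4-11 cells in IMDM with 10% FBS were treated with increasing compound concentrations (DMSO 0.1%) for 3 h at 37 °C, in triplicate. Isolated mRNA was quantified by one-step TaqMan RT-qPCR, cMYC Ct normalized to cyclophilin, and fold expression given relative to DMSO control.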

For the compound `Cc1nc2c(-c3ccc4nccnc4c3)cc(-c3c(C)noc3C)cc2[nH]1` [Example Compound 153, 3,5-dimethyl-4-(2-methyl-4-(quinoxalin-6-yl)-1H-benzo[d]imidazol-6-yl)isoxazole], the IC50 in assay [1] was 300 to 3000 nM; in assay [2] it was 300 to 3000 nM; in assay [3] it was no more than 300 nM; in assay [4], 300 to 3000 nM.

Consider `Cc1nc2c(Oc3cccnc3C)cc(-c3c(C)noc3C)cc2[nH]1` [Example Compound 155, 3,5-dimethyl-4-(2-methyl-4-((2-methylpyridin-3-yl)oxy)-1H-benzo[d]imidazol-6-yl)isoxazole], for which the IC50 in assay [1] was 300 to 3000 nM; in assay [2] it was 300 to 3000 nM; in assay [3], no more than 300 nM; in assay [4] it was 300 to 3000 nM.

As to `Cc1nc2c(-c3ccc4nncn4c3)cc(-c3c(C)noc3C)cc2[nH]1` [Example Compound 156, 4-(4-([1,2,4]triazolo [4,3-a]pyridin-6-yl)-2-methyl-1H-benzo[d]imidazol-6-yl)-3,5-dimethyl isoxazole], the IC50 is 3000 to 30000 nM in assay [1], 3000 to 30000 nM in assay [2], no more than 300 nM in assay [3] and 300 to 3000 nM in assay [4].

Turning to `Cc1nc2c(-c3cc(C(F)(F)F)ccc3F)cc(-c3c(C)noc3C)cc2[nH]1` [Example Compound 157, 4-(4-(2-fluoro-5-(trifluoro-methyl)phenyl)-2-methyl-1H-benzo[d]imidazol-6-yl)-3,5-dimethyl isoxazole], the IC50 is 300 to 3000 nM in assay [1], 300 to 3000 nM in assay [2], no more than 300 nM in assay [3] and 300 to 3000 nM in assay [4].

For the compound `Cc1nc2c(CCc3ccccc3)cc(-c3c(C)noc3C)cc2[nH]1` [Example Compound 161, 3,5-dimethyl-4-(2-methyl-4-phenethyl-1H-benzo[d]imidazol-6-yl)isoxazole], the IC50 was 300 to 3000 nM in assay [1], 3000 to 30000 nM in assay [2], no more than 300 nM in assay [3] and 300 to 3000 nM in assay [4].

On to `Cc1nc2c(-c3cc(C(F)(F)F)ccc3Cl)cc(-c3c(C)noc3C)cc2[nH]1` [Example Compound 162, 4-(4-(2-chloro-5-(trifluoro-methyl)phenyl)-2-methyl-1H-benzo[d]imidazol-6-yl)-3,5-dimethyl isoxazole], for which the IC50 in assay [1], in assay [2], in assay [3] and in assay [4] was 300 to 3000 nM in each case.

`Cc1nc2c(-c3cnc4ccccc4c3)cc(-c3c(C)noc3C)cc2[nH]1` [Example Compound 163, 3,5-dimethyl-4-(2-methyl-4-(quinolin-3-yl)-1H-benzo[d]imidazol-6-yl)isoxazole]: the IC50 in assay [1] is 300 to 3000 nM; in assay [2], 300 to 3000 nM; in assay [3] it was no more than 300 nM; in assay [4] it was 300 to 3000 nM.

On to `Cc1nc2c(-c3cscc3C)cc(-c3c(C)noc3C)cc2[nH]1` [Example Compound 166, 3,5-dimethyl-4-(2-methyl-4-(4-methyl-thiophen-3-yl)-1H-benzo[d]imidazol-6-yl)isoxazole], for which the IC50 is 300 to 3000 nM in assay [1], 300 to 3000 nM in assay [2], no more than 300 nM in assay [3] and 300 to 3000 nM in assay [4].

In the case of `Cc1nc2c(-c3c(C)cnn3C)cc(-c3c(C)noc3C)cc2[nH]1` [Example Compound 169, 4-(4-(1,4-dimethyl-1H-pyrazol-5-yl)-2-methyl-1H-benzo[d]imidazol-6-yl)-3,5-dimethyl isoxazole], the IC50 is 300 to 3000 nM in assay [1], 300 to 3000 nM in assay [2], no more than 300 nM in assay [3] and 300 to 3000 nM in assay [4].

As to `Cc1nc2c(-c3sc(C)nc3C)cc(-c3c(C)noc3C)cc2[nH]1` [Example Compound 170, 4-(4-(2,4-dimethyl-thiazol-5-yl)-2-methyl-1H-benzo[d]imidazol-6-yl)-3,5-dimethyl isoxazole], the IC50 in assay [1] is 300 to 3000 nM; in assay [2], 300 to 3000 nM; in assay [3], no more than 300 nM; in assay [4], 300 to 3000 nM.

Regarding `COc1ccncc1Oc1cc(-c2c(C)noc2C)cc2[nH]c(C)nc12` [Example Compound 171, 4-(4-((4-methoxy-pyridin-3-yl)oxy)-2-methyl-1H-benzo[d]imidazol-6-yl)-3,5-dimethyl isoxazole], the IC50 in assay [1] is 300 to 3000 nM; in assay [2], 300 to 3000 nM; in assay [3], no more than 300 nM; in assay [4] it was 300 to 3000 nM.

`Cc1nc2c(Oc3cc(C#N)ccc3C)cc(-c3c(C)noc3C)cc2[nH]1` [Example Compound 172, 3-((6-(3,5-dimethyl-isoxazol-4-yl)-2-methyl-1H-benzo[d]imidazol-4-yl)oxy)-4-methyl benzonitrile]: the IC50 in assay [1] is 300 to 3000 nM; in assay [2], 300 to 3000 nM; in assay [3], no more than 300 nM; in assay [4], 300 to 3000 nM.

Take `Cc1nc2c(N3CCOCC3)cc(-c3c(C)noc3C)cc2[nH]1` [Example Compound 173, 4-(6-(3,5-dimethyl-isoxazol-4-yl)-2-methyl-1H-benzo[d]imidazol-4-yl) morpholine]: the IC50 in assay [1] is 300 to 3000 nM; in assay [2], 300 to 3000 nM; in assay [3], no more than 300 nM; in assay [4], 300 to 3000 nM.

Take `Cc1nc2c(Oc3cc(C(N)=O)ccc3C)cc(-c3c(C)noc3C)cc2[nH]1` [Example Compound 174, 3-((6-(3,5-dimethylisoxazol-4-yl)-2-methyl-1H-benzo[d]imidazol-4-yl)oxy)-4-methylbenzamide]: the IC50 is 300 to 3000 nM in assay [1], 300 to 3000 nM in assay [2], no more than 300 nM in assay [3] and 300 to 3000 nM in assay [4].

In the case of `Cc1nc2c(N3CCOCC3C)cc(-c3c(C)noc3C)cc2[nH]1` (stereo not shown) [Example Compound 177, 4-(6-(3,5-dimethyl-isoxazol-4-yl)-2-methyl-1H-benzo[d]imidazol-4-yl)-3-methyl morpholine], the IC50 in assay [1] is 300 to 3000 nM; in assay [2], 300 to 3000 nM; in assay [3], no more than 300 nM; in assay [4], no more than 300 nM.

Regarding `Cc1n[nH]c(C)c1-c1cc(-c2c(C)noc2C)cc2[nH]nc(C)c12` [Example Compound 180, 4-(4-(3,5-dimethyl-1H-pyrazol-4-yl)-3-methyl-1H-indazol-6-yl)-3,5-dimethylisoxazole], the IC50 in assay [1], in assay [2], in assay [3] and in assay [4] was no more than 300 nM throughout.

For the compound `Cc1noc(C)c1-c1cc(-c2c(C)nn(C)c2C)c2c(c1)ncn2C` [Example Compound 182, 3,5-dimethyl-4-(1-methyl-7-(1,3,5-trimethyl-1H-pyrazol-4-yl)-1H-benzo[d]imidazol-5-yl)isoxazole], the IC50 in assay [1] was no more than 300 nM; in assay [2], 300 to 3000 nM; in assay [3], no more than 300 nM; in assay [4], no more than 300 nM.

As to `Cc1ccncc1-c1cc(-c2c(C)noc2C)cc2[nH]c(NC3CCOCC3)nc12` [Example Compound 201, 6-(3,5-dimethyl-isoxazol-4-yl)-4-(4-methyl-pyridin-3-yl)-N-(tetra hydro-2H-pyran-4-yl)-1H-benzo[d] imidazol-2-amine], the IC50 in assay [1], in assay [2], in assay [3] and in assay [4] was no more than 300 nM throughout.

As to `Cc1noc(C)c1-c1cc(-c2cccc(C#N)c2C)c2nc(N3CCOCC3)[nH]c2c1` [Example Compound 203, 3-(6-(3,5-dimethyl-isoxazol-4-yl)-2-morpholino-1H-benzo[d]imidazol-4-yl)-2-methyl benzonitrile], the IC50 in assay [1] was no more than 300 nM; in assay [2], 300 to 3000 nM; in assay [3], no more than 300 nM; in assay [4], no more than 300 nM.

Take `Cc1noc(C)c1-c1cc(-c2cccc(C#N)c2C)c2nc(NC3CCOCC3)[nH]c2c1` [Example Compound 204, 3-(6-(3,5-dimethyl-isoxazol-4-yl)-2-((tetrahydro-2H-pyran-4-yl)amino)-1H-benzo[d]imidazol-4-yl)-2-methyl benzonitrile]: the IC50 in assay [1], in assay [2], in assay [3] and in assay [4] was no more than 300 nM each time.

Turning to `Cc1ccc(C#N)cc1-c1cc(-c2c(C)noc2C)cc2[nH]c(NC3CCN(C)CC3)nc12` [Example Compound 205, 3-(6-(3,5-dimethyl-isoxazol-4-yl)-2-((1-methyl-piperidin-4-yl)amino)-1H-benzo[d]imidazol-4-yl)-4-methyl benzonitrile], the IC50 in assay [1] was 300 to 3000 nM; in assay [2] it was 300 to 3000 nM; in assay [3] it was no more than 300 nM; in assay [4], no more than 300 nM.

Turning to `Cc1noc(C)c1-c1cc(-c2cccc(C(N)=O)c2C)c2nc(N3CCN(C)CC3)[nH]c2c1` [Example Compound 206, 3-(6-(3,5-dimethyl-isoxazol-4-yl)-2-(4-methyl-piperazin-1-yl)-1H-benzo[d]imidazol-4-yl)-2-methyl benzamide], the IC50 is 300 to 3000 nM in assay [1], 300 to 3000 nM in assay [2], no more than 300 nM in assay [3] and 300 to 3000 nM in assay [4].
